Reference: patent US6689773B2, “Uracil substituted phenyl sulfamoyl carboxamides” (BASF Aktiengesellschaft, priority 2000, dated 2004)

How the values were obtained:
Type in all cases: in vivo
[1] = test system: Polygonum persicaria (POLPE), redshank; ladysthumb; assay: Greenhouse post-emergence herbicidal action (Example 149); conditions: 15.6 or 7.8 g/ha of a.i.
Experimental: (§1) The culture containers used were plastic flowerpots containing loamy sand with approximately 3.0% of humus as substrate. The seeds of the test plants were sown separately for each species.
(§2) For the post-emergence treatment, the test plants were grown to a plant height of from 3 to 15 cm, depending on the plant habit, and only then treated with the active ingredients which had been suspended or emulsified in water. To this end, the test plants were either sown directly and grown in the same containers, or they were first grown separately as seedlings and transplanted into the test containers a few days prior to treatment. The rate of application for the post-emergence treatment was 15.6 or 7.8 g/ha active ingredient.
(§3) Depending on the species, the plants were kept at from 10-25° C. and 20-35° C., respectively. The test period extended over 2 to 4 weeks. During this time, the plants were tended, and their response to the individual treatments was evaluated.
(§4) Evaluation was carried out using a scale of from 0 to 100. 100 means no emergence of the plants, or complete destruction of at least the aerial parts, and 0 means no damage or normal course of growth.
(§5) The plants used in the greenhouse experiments belonged to the following species: […]

[2] = test system: Pharbitis purpurea (PHBPU), common or tall morningglory; assay: as above; conditions: 15.6 or 7.8 g/ha of a.i.
Experimental: as §1, §2, §3, §4, §5

[3] = test system: Amaranthus retroflexus (AMARE), Redroot pigweed; assay: as above; conditions: 15.6 or 7.8 g/ha of a.i.
Experimental: as §1, §2, §3, §4, §5

[4] = test system: XANST, Cocklebur, Xanthium strumariam; assay: Postemergence herbicidal evaluation (Example 147); conditions: rating scale 0-9, two to three weeks after treatment
How it was run: (§6)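 About two-week-old seedlings were sprayed postemergence at roughly 0.016–0.032 kg/ha in 80/20 acetone/water with 1.0% methylated seed oil. After two to three weeks in the greenhouse, injury was rated visually on a 0–9 scale against controls, and repeat tests were averaged.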

[5] = test system: ZEAMX, Field corn, Zea mays L.; assay: Postemergence herbicidal evaluation (Example 147); conditions: rating scale 0-9, two to three weeks after treatment
How it was run: as §6

[6] = test system: AMBEL, Ragweed, Common, Ambrosia artemiisifolia, L.; assay: Postemergence herbicidal evaluation (Example 147); conditions: rating scale 0-9, two to three weeks after treatment
How it was run: as §6

[7] = test system: IPOHE, Morningglory, Ivyleaf, Ipomoea hederacea, (L)Jacq.; assay: Postemergence herbicidal evaluation (Example 147); conditions: rating scale 0-9, two to three weeks after treatment
How it was run: as §6

[8] = test system: DIGSA, Crabgrass, (Hairy) L, Digitaria sanguinalis, (L)Scop; assay: Postemergence herbicidal evaluation (Example 147); conditions: rating scale 0-9, two to three weeks after treatment
How it was run: as §6

[9] = test system: ABUTH, Velvetleaf, Abutilon theophrasti, Medic.; assay: Postemergence herbicidal evaluation (Example 147); conditions: rating scale 0-9, two to three weeks after treatment
How it was run: as §6

[10] = test system: ECHCG, Barnyardgrass, Echinochloa crusgalli, (L.)Beau; assay: Postemergence herbicidal evaluation (Example 147); conditions: rating scale 0-9, two to three weeks after treatment
How it was run: as §6

[11] = test system: GLXMA, Soybean, Glycine max, (L.) Merr.; assay: Postemergence herbicidal evaluation (Example 147); conditions: rating scale 0-9, two to three weeks after treatment
How it was run: as §6

[12] = test system: TRZAW, Winter wheat, Tritium Aestivum, L. (Winter); assay: Postemergence herbicidal evaluation (Example 147); conditions: rating scale 0-9, two to three weeks after treatment
How it was run: as §6

[13] = test system: ALOMY, Blackgrass, Alopecurus myosuroides; assay: Postemergence herbicidal evaluation (Example 147); conditions: rating scale 0-9, two to three weeks after treatment
How it was run: as §6

[14] = test system: SETVI, Green foxtail, Setaria viridis, (L.)Beau; assay: Postemergence herbicidal evaluation (Example 147); conditions: rating scale 0-9, two to three weeks after treatment
How it was run: as §6

[15] = test system: CHEAL, Lambsquarters, Chenopodium album, L. Common; assay: Postemergence herbicidal evaluation (Example 147); conditions: rating scale 0-9, two to three weeks after treatment
How it was run: as §6

[16] = test system: XANST, Cocklebur, Xanthium strumariam; assay: Preemergence herbicidal evaluation (Example 148); conditions: rating scale 0-9, two to four weeks after treatment
How it was run: (§7)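 Seeds mixed with potting soil and planted in cups, then sprayed preemergence with aqueous acetone solution of test compound at about 0.125 to 0.250 kg per hectare. Kept under greenhouse conditions; visual rating versus untreated control 2–4 weeks after treatment, scoring stand, vigor, malformation, size and chlorosis. Repeat tests averaged.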

[17] = test system: ZEAMX, Field corn, Zea mays L.; assay: Preemergence herbicidal evaluation (Example 148); conditions: rating scale 0-9, two to four weeks after treatment
How it was run: as §7

[18] = test system: AMBEL, Ragweed, Common, Ambrosia artemiisifolia, L.; assay: Preemergence herbicidal evaluation (Example 148); conditions: rating scale 0-9, two to four weeks after treatment
How it was run: as §7

[19] = test system: IPOHE, Morningglory, Ivyleaf, Ipomoea hederacea, (L)Jacq.; assay: Preemergence herbicidal evaluation (Example 148); conditions: rating scale 0-9, two to four weeks after treatment
How it was run: as §7

[20] = test system: DIGSA, Crabgrass, (Hairy) L, Digitaria sanguinalis, (L)Scop; assay: Preemergence herbicidal evaluation (Example 148); conditions: rating scale 0-9, two to four weeks after treatment
How it was run: as §7

[21] = test system: ABUTH, Velvetleaf, Abutilon theophrasti, Medic.; assay: Preemergence herbicidal evaluation (Example 148); conditions: rating scale 0-9, two to four weeks after treatment
How it was run: as §7

[22] = test system: ECHCG, Barnyardgrass, Echinochloa crusgalli, (L.)Beau; assay: Preemergence herbicidal evaluation (Example 148); conditions: rating scale 0-9, two to four weeks after treatment
How it was run: as §7

[23] = test system: GLXMA, Soybean, Glycine max, (L.) Merr.; assay: Preemergence herbicidal evaluation (Example 148); conditions: rating scale 0-9, two to four weeks after treatment
How it was run: as §7

[24] = test system: TRZAW, Winter wheat, Tritium Aestivum, L. (Winter); assay: Preemergence herbicidal evaluation (Example 148); conditions: rating scale 0-9, two to four weeks after treatment
How it was run: as §7

[25] = test system: ALOMY, Blackgrass, Alopecurus myosuroides; assay: Preemergence herbicidal evaluation (Example 148); conditions: rating scale 0-9, two to four weeks after treatment
How it was run: as §7

[26] = test system: SETVI, Green foxtail, Setaria viridis, (L.)Beau; assay: Preemergence herbicidal evaluation (Example 148); conditions: rating scale 0-9, two to four weeks after treatment
How it was run: as §7

[27] = test system: CHEAL, Lambsquarters, Chenopodium album, L. Common; assay: Preemergence herbicidal evaluation (Example 148); conditions: rating scale 0-9, two to four weeks after treatment
How it was run: as §7

SMILES: CC(C)N(C)S(=O)(=O)NC(=O)c1cc(-c2nn(C)c(OC(F)F)c2Cl)c(F)cc1Cl [Ip.86, 4-Chloro-3-[4-chloro-2-fluoro-5-(N-methyl-N-isopropyl)-sulfamoylcarboxamidophenyl]-5-difluoromethoxy-1-methyl-1H-pyrazole]
- herbicidal action [1]: very good herbicial action
- herbicidal action [2]: very good herbicial action
- herbicidal action [3]: very good herbicial action

SMILES: CC(C)N(C)S(=O)(=O)NC(=O)c1cc(-c2ncc(C(F)(F)F)cc2Cl)c(F)cc1Cl [Iy.86, N′-[[2-Chloro-5-[3-chloro-5-(trifluoromethyl)-2-pyridinyl]-4-fluorobenzoyl]]-N-isopropyl-N-methylsulfamide]
- herbicidal action [1]: very good herbicial action
- herbicidal action [2]: very good herbicial action
- herbicidal action [3]: very good herbicial action

SMILES: CCOC(=O)CN(C)S(N)(=O)=O [compound 53]
- Postemergence herbicidal rating XANST ([4]; rate 0.016 kg/ha): 9.0
- Postemergence herbicidal rating XANST ([4]; rate 0.032 kg/ha): 9.0
- Postemergence herbicidal rating ZEAMX ([5]; rate 0.016 kg/ha): 7.2
- Postemergence herbicidal rating ZEAMX ([5]; rate 0.032 kg/ha): 7.6
- Postemergence herbicidal rating AMBEL ([6]; rate 0.016 kg/ha): 8.9
- Postemergence herbicidal rating AMBEL ([6]; rate 0.032 kg/ha): 9.0
- Postemergence herbicidal rating IPOHE ([7]; rate 0.016 kg/ha): 8.8
- Postemergence herbicidal rating IPOHE ([7]; rate 0.032 kg/ha): 9.0
- Postemergence herbicidal rating DIGSA ([8]; rate 0.016 kg/ha): 5.3
- Postemergence herbicidal rating DIGSA ([8]; rate 0.032 kg/ha): 6.6
- Postemergence herbicidal rating ABUTH ([9]; rate 0.016 kg/ha): 9.0
- Postemergence herbicidal rating ABUTH ([9]; rate 0.032 kg/ha): 9.0
- Postemergence herbicidal rating ECHCG ([10]; rate 0.016 kg/ha): 8.1
- Postemergence herbicidal rating ECHCG ([10]; rate 0.032 kg/ha): 8.8
- Postemergence herbicidal rating GLXMA ([11]; rate 0.016 kg/ha): 8.1
- Postemergence herbicidal rating GLXMA ([11]; rate 0.032 kg/ha): 8.4
- Postemergence herbicidal rating TRZAW ([12]; rate 0.016 kg/ha): 5.6
- Postemergence herbicidal rating TRZAW ([12]; rate 0.032 kg/ha): 6.2
- Postemergence herbicidal rating ALMOY ([13]; rate 0.016 kg/ha): 2.3
- Postemergence herbicidal rating ALMOY ([13]; rate 0.032 kg/ha): 3.0
- Postemergence herbicidal rating SETVI ([14]; rate 0.016 kg/ha): 6.4
- Postemergence herbicidal rating SETVI ([14]; rate 0.032 kg/ha): 7.5
- Postemergence herbicidal rating CHEAL ([15]; rate 0.016 kg/ha): 8.1
- Postemergence herbicidal rating CHEAL ([15]; rate 0.032 kg/ha): 8.4
- Preemergence herbicidal rating XANST ([16]; rate 0.125 kg/ha): 9.0
- Preemergence herbicidal rating XANST ([16]; rate 0.25 kg/ha): 9.0
- Preemergence herbicidal rating ZEAMX ([17]; rate 0.125 kg/ha): 2.3
- Preemergence herbicidal rating ZEAMX ([17]; rate 0.25 kg/ha): 4.3
- Preemergence herbicidal rating AMBEL ([18]; rate 0.125 kg/ha): 8.9
- Preemergence herbicidal rating AMBEL ([18]; rate 0.25 kg/ha): 9.0
- Preemergence herbicidal rating IPOHE ([19]; rate 0.125 kg/ha): 9.0
- Preemergence herbicidal rating IPOHE ([19]; rate 0.25 kg/ha): 9.0
- Preemergence herbicidal rating DIGSA ([20]; rate 0.125 kg/ha): 8.1
- Preemergence herbicidal rating DIGSA ([20]; rate 0.25 kg/ha): 8.8
- Preemergence herbicidal rating ABUTH ([21]; rate 0.125 kg/ha): 9.0
- Preemergence herbicidal rating ABUTH ([21]; rate 0.25 kg/ha): 9.0
- Preemergence herbicidal rating ECHCG ([22]; rate 0.125 kg/ha): 7.5
- Preemergence herbicidal rating ECHCG ([22]; rate 0.25 kg/ha): 8.4
- Preemergence herbicidal rating GLXMA ([23]; rate 0.125 kg/ha): 8.1
- Preemergence herbicidal rating GLXMA ([23]; rate 0.25 kg/ha): 8.8
- Preemergence herbicidal rating TRZAW ([24]; rate 0.125 kg/ha): 1.3
- Preemergence herbicidal rating TRZAW ([24]; rate 0.25 kg/ha): 2.0
- Preemergence herbicidal rating ALMOY ([25]; rate 0.125 kg/ha): 1.3
- Preemergence herbicidal rating ALMOY ([25]; rate 0.25 kg/ha): 2.7
- Preemergence herbicidal rating SETVI ([26]; rate 0.125 kg/ha): 5.7
- Preemergence herbicidal rating SETVI ([26]; rate 0.25 kg/ha): 7.3
- Preemergence herbicidal rating CHEAL ([27]; rate 0.125 kg/ha): 9.0
- Preemergence herbicidal rating CHEAL ([27]; rate 0.25 kg/ha): 9.0
